Data from patent publication US9238039B2, “Pyrazolo[1,5-A]pyrimidines for antiviral treatment” (Gilead Sciences, Inc., priority 2010, dated 2016).

Tested on: RSV strain A2
Experiment: RSV antiviral cytoprotection assay in Hep2 cells (96-well and 384-well format, Cell TiterGlo read-out)
Format: cell-based, Respiratory Syncytial Virus (RSV)
Conditions: human respiratory syncytial virus; for inhibition at 0.5 µM: HEp-2, 0.5 uM; for inhibition at 0.5 µM / inhibition at 1 µM: RSV-induced cytopathic effect in Hep2 cells, calculated from fitted dose response curve, normalized to 0% and 100%; for EC50: HEp-2, RSV-induced cytopathic effects, Hep2 cells, class symbols; for inhibition at 1 µM: HEp-2, 1 uM

Row | EC50 [nM] | Structure (SMILES) | inhibition at 0.5 µM [%] | inhibition at 1 µM [%]
1 | 0.1 to 100 | CCc1ccc(C(=O)N2CCCC[C@H]2c2cc3nc(N4CC[C@H](N)C4)c(C)cn3n2)s1 [Compound 304] | 100 | –
2 | 0.1 to 100 | CCc1cc(C(=O)N2CCCC[C@H]2c2cc3nc(N4CC[C@H](N)C4)c(C)cn3n2)n(C)n1 [Compound 303] | 100 | –
3 | 0.1 to 100 | Cc1cn2nc([C@@H]3CCCCN3C(=O)c3nccc4ccccc34)cc2nc1N1CC[C@H](N)C1 [Compound 344] | 100 | –
4 | 0.1 to 100 | Cc1cn2nc([C@@H]3CCCCN3C(=O)c3cc(F)ccc3Cl)cc2nc1N1CC[C@H](N)C1 [Compound 347] | 100 | –
5 | 101 to 1000 | Cc1ccc(NS(C)(=O)=O)c(C(=O)N2CCC(C(F)(F)F)CC2c2cc3[nH]c(C)c(C)c(=O)n3n2)c1 (stereo not shown) [Compound 251] | 73 | –
6 | 0.1 to 100 | Cc1cn2nc([C@@H]3CCCCN3C(=O)c3cncc(Cl)c3)cc2nc1N1CC[C@H](N)C1 [Compound 306] | 100 | –
7 | 0.1 to 100 | COc1cccc(C(=O)N2CCCC[C@H]2c2cc3nc(N4CC[C@H](N)C4)c(C)cn3n2)c1 [Compound 295] | 97 | –
8 | 0.1 to 100 | Cc1cn2nc([C@@H]3CCCCN3C(=O)c3ccnc(Cl)c3F)cc2nc1N1CC[C@H](N)C1 [Compound 352] | 100 | –
9 | 101 to 1000 | Cc1[nH]c2cc([C@@H]3CCCCN3C(=O)c3ccccc3NS(=O)(=O)N3CCOCC3)nn2c(=O)c1C [Compound 15] | 30 | 42
10 | 0.1 to 100 | COc1ccsc1C(=O)N1CCCC[C@H]1c1cc2nc(N3CC[C@H](N)C3)c(C)cn2n1 [Compound 308] | 100 | –
11 | 0.1 to 100 | COc1cc(Cl)cc(C(=O)N2CCCC[C@H]2c2cc3nc(N4CC[C@H](N)C4)c(C)cn3n2)c1 [Compound 376] | 100 | –
12 | 0.1 to 100 | Cc1ccc(NS(C)(=O)=O)c(C(=O)N2CCCC[C@H]2c2cc3nc(C)c(C)c(N(C)C)n3n2)c1 [Compound 101] | 100 | –
13 | 0.1 to 100 | Cc1cccc(C(=O)N2CCCC[C@H]2c2cc3nc(N4CC[C@H](C#N)C4)c(C)cn3n2)c1 [Compound 152] | 100 | –
14 | 0.1 to 100 | COC(=O)NC(C(=O)N1CCCC[C@H]1c1cc2nc(C3CC3)cc(C)n2n1)c1ccccc1 (stereo partly shown) [Compound 118] | 99 | –
15 | 101 to 1000 | Cc1c[nH]c2cc([C@@H]3CCCCN3C(=O)c3cc(F)ccc3NS(C)(=O)=O)nn2c1=O [Compound 17] | 75 | 97

Second part, the compound before the results:

Row | Structure (SMILES) | EC50 [nM] | inhibition at 0.5 µM [%] | inhibition at 1 µM [%]
16 | CC(=O)Nc1c(Cl)cc(C)cc1C(=O)N1CCCC[C@H]1c1cc2nc(C)c(C)c(N(C)C)n2n1 [Compound 246] | 0.1 to 100 | 98 | –
17 | Cc1cc(C2CC2)nc2cc([C@@H]3CCCCN3C(=O)C(NC(=O)OC(C)(C)C)c3ccccc3)nn12 (stereo partly shown) [Compound 242] | 101 to 1000 | 72 | –
18 | Cc1cn2nc([C@@H]3CCCCN3C(=O)c3ccc4cccnc4c3)cc2nc1N1CC[C@H](N)C1 [Compound 343] | 101 to 1000 | 60 | –
19 | Cc1cn2nc([C@@H]3CCCCN3C(=O)c3cc(Cl)ccc3NS(C)(=O)=O)cc2nc1N1CCC[C@H]1CO [Compound 210] | 101 to 1000 | 81 | –
20 | CS(=O)(=O)Nc1ccc(Cl)cc1C(=O)N1CCCC[C@H]1c1cc2nc(N3CC[C@@H](C#N)C3)cc(N3CCOCC3)n2n1 [Compound 228] | 0.1 to 100 | 100 | –
21 | CC(=O)Nc1ccc(Cl)cc1C(=O)N1CCCC[C@H]1c1cc2nc(C3CC3)cc(C)n2n1 [Compound 66] | 0.1 to 100 | 99 | –
22 | CS(=O)(=O)Nc1ccc(Cl)cc1C(=O)N1CCCC[C@H]1c1cc2nc(N3CCC3)cc(N3CCNCC3)n2n1 [Compound 45] | 0.1 to 100 | 100 | –
23 | Cc1cn2nc([C@@H]3CCCCN3C(=O)c3cnc(Cl)cn3)cc2nc1N1CC[C@H](N)C1 [Compound 309] | 0.1 to 100 | 100 | –
24 | CS(=O)(=O)Nc1ccc(Cl)cc1C(=O)N1CCCC[C@H]1c1cc2nc(N3CCC3)cc(N3CCN[C@@H](C(F)F)C3)n2n1 [Compound 253] | 0.1 to 100 | 88 | –
25 | Cc1cn2nc([C@@H]3CCCCN3C(=O)c3cc(Cl)ccc3NS(C)(=O)=O)cc2nc1N1CC[C@@H](CO)C1 [Compound 198] | 0.1 to 100 | 95 | –
26 | C[C@H]1CC[C@@H](c2cc3nc(N4CC(N)C4)cc(N4CCOCC4)n3n2)N(C(=O)c2cc(Cl)ccc2NS(C)(=O)=O)C1 [Compound 142] | 0.1 to 100 | 100 | –
27 | COc1c(C)cccc1C(=O)N1CCCC[C@H]1c1cc2nc(N3CC[C@H](N)C3)c(C)cn2n1 [Compound 320] | 0.1 to 100 | 100 | –
28 | Cc1cn2nc(C3CCCCCN3C(=O)c3cc(Cl)ccc3NS(C)(=O)=O)cc2nc1N1CC(O)C1 (stereo not shown) [Compound 174] | 0.1 to 100 | 100 | –
